According to PubChem BioAssay (NCI):
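GI50 is the concentration that inhibits growth by half. At the TGI there is no net growth.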

Experiments:
Experiment in all cases: NCI-60 cell line screen, 384-well format
[1] = system: HL-60(TB) leukemia
[2] = system: SN12C renal
[3] = system: OVCAR-4 ovarian
[4] = system: SF-539 CNS
[5] = system: NCI/ADR-RES ovarian
[6] = system: SF-268 CNS
[7] = system: MCF7 breast
[8] = system: UO-31 renal
[9] = system: OVCAR-8 ovarian
[10] = system: NCI-H460 NSCLC
[11] = system: SK-MEL-2 melanoma
[12] = system: MOLT-4 leukemia
[13] = system: NCI-H23 lung
[14] = system: HOP-92 NSCLC
[15] = system: DU-145 prostate
[16] = system: M14 melanoma
[17] = system: NCI-H226 lung
[18] = system: NCI-H522 lung
[19] = system: MALME-3M melanoma
[20] = system: T-47D breast
[21] = system: 786-0 renal
[22] = system: HT29 colon
[23] = system: SR leukemia
[24] = system: NCI-H322M lung
[25] = system: K-562 leukemia
[26] = system: RXF 393 renal
[27] = system: HOP-62 NSCLC
[28] = system: UACC-257 melanoma
[29] = system: SF-295 CNS
[30] = system: OVCAR-5 ovarian
[31] = system: COLO 205 colon
[32] = system: ACHN renal
[33] = system: A549 NSCLC
[34] = system: CCRF-CEM leukemia
[35] = system: TK-10 renal
[36] = system: SNB-75 CNS
[37] = system: SW-620 colon
[38] = system: SK-OV-3 ovarian
[39] = system: PC-3 prostate
[40] = system: MDA-MB-231 breast
[41] = system: HCT-116 colon
[42] = system: HS 578T breast
[43] = system: EKVX NSCLC
[44] = system: KM12 colon
[45] = system: HCC-2998 colon
[46] = system: HCT-15 colon
[47] = system: SNB-19 CNS

## CC(C)[C@](O)(c1ccc2cc(OC(F)F)c(OC(F)F)cc2c1)c1cn[nH]n1
[1]
  GI50: 6.11 µM
  TGI: 16.1 µM
[2]
  GI50: 14.9 µM
  TGI: 28.2 µM
[3]
  GI50: 13.6 µM
  TGI: 33.1 µM
[4]
  GI50: 16.8 µM
  TGI: 30.5 µM
[5]
  GI50: 18.7 µM
  TGI: 33.8 µM
[6]
  GI50: 16.5 µM
  TGI: 30.6 µM
[7]
  GI50: 13 µM
  TGI: 27.5 µM
[8]
  GI50: 16.6 µM
  TGI: 30.4 µM
[9]
  GI50: 16.3 µM
  TGI: 30 µM
[10]
  GI50: 16.6 µM
  TGI: 30.5 µM
[11]
  GI50: 19.4 µM
  TGI: 33.5 µM
[12]
  GI50: 11.3 µM
  TGI: 23.5 µM
[13]
  GI50: 14.8 µM
  TGI: 29.6 µM
[14]
  GI50: 16.7 µM
  TGI: 30.4 µM
[15]
  GI50: 16.5 µM
  TGI: 32.8 µM
[16]
  GI50: 17.6 µM
  TGI: 31.6 µM
[17]
  GI50: 21 µM
  TGI: 36 µM
[18]
  GI50: 13.6 µM
  TGI: 27.7 µM
[19]
  GI50: 16.7 µM
  TGI: 30.9 µM
[20]
  GI50: 10.9 µM
  TGI: 38.2 µM
[21]
  GI50: 16.2 µM
  TGI: 30.3 µM
[22]
  GI50: 16 µM
  TGI: 29.8 µM
[23]
  GI50: 3.91 µM
  TGI: 13.6 µM
[24]
  GI50: 17.3 µM
  TGI: 33 µM
[25]
  GI50: 11 µM
  TGI: 23.5 µM
[26]
  GI50: 13.8 µM
  TGI: 28.3 µM
[27]
  GI50: 16.3 µM
  TGI: 30 µM
[28]
  GI50: 16.5 µM
  TGI: 30.6 µM
[29]
  GI50: 15 µM
  TGI: 28.7 µM
[30]
  GI50: 17.3 µM
  TGI: 38.2 µM
[31]
  GI50: 20.3 µM
  TGI: 39.9 µM
[32]
  GI50: 25.5 µM
  TGI: 59.8 µM
[33]
  GI50: 17.4 µM
  TGI: 44.8 µM
[34]
  GI50: 12.3 µM
  TGI: 24.8 µM
[35]
  GI50: 14.7 µM
  TGI: 30.2 µM
[36]
  GI50: 14.9 µM
  TGI: 29.5 µM
[37]
  GI50: 15.2 µM
  TGI: 28.8 µM
[38]
  GI50: 15.4 µM
  TGI: 29.5 µM
[39]
  GI50: 15.9 µM
  TGI: 30.3 µM
[40]
  GI50: 13.2 µM
  TGI: 26.3 µM
[41]
  GI50: 13.6 µM
  TGI: 26.9 µM
[42]
  GI50: 12.3 µM
  TGI: 24.8 µM
[43]
  GI50: 13.1 µM
  TGI: 28.8 µM
[44]
  GI50: 15 µM
  TGI: 28.6 µM
[45]
  GI50: 15.4 µM
  TGI: 28.9 µM
[46]
  GI50: 14.4 µM
  TGI: 27.8 µM
[47]
  GI50: 17.8 µM
  TGI: 32.2 µM
